# Columns and labels:
# Medulla [1] = assay: Drug uptake in anesthetized cynomolgus monkey brain medulla after 202.5 mins postinjection; type: ADME, organism-based, Macaca fascicularis; details: in vivo, 3.375 h
# Midbrain [2] = assay: Drug uptake in anesthetized cynomolgus monkey brain midbrain after 165 mins postinjection; type: ADME, organism-based, Macaca fascicularis; details: in vivo, 2.75 h
# Thalamus [3] = assay: Drug uptake in anesthetized cynomolgus monkey brain thalamus after 6.5 mins postinjection; type: ADME, organism-based, Macaca fascicularis; design: unit not given here; details: in vivo
# Pons [4] = assay: Drug uptake in anesthetized cynomolgus monkey brain pons after 105 mins postinjection; type: ADME, organism-based, Macaca fascicularis; details: in vivo, 1.75 h
# Midbrain [5] = assay: Drug uptake in anesthetized cynomolgus monkey brain midbrain after 187.5 mins postinjection; type: ADME, organism-based, Macaca fascicularis; details: in vivo, 3.125 h
# [6] = Drug uptake in anesthetized cynomolgus monkey brain cerebellum after 0.5 mins postinjection; type: ADME, organism-based, Macaca fascicularis; details: in vivo
# [7] = Ratio of drug uptake in pons to cerebellum in awake rhesus monkey after 10.5 mins postinjection; type: ADME, organism-based, Macaca mulatta; details: in vivo, 0.175 h
# Putamen [8] = assay: Drug uptake in anesthetized cynomolgus monkey brain putamen after 207.5 mins postinjection; type: ADME, organism-based, Macaca fascicularis; details: in vivo
# [9] = Ratio of drug uptake in occipital lobe to cerebellum in anesthetized cynomolgus monkey after 95 mins postinjection; type: ADME, organism-based, Macaca fascicularis; details: in vivo
# Caudate [10] = assay: Drug uptake in anesthetized cynomolgus monkey brain caudate after 115 mins postinjection; type: ADME, organism-based, Macaca fascicularis, Caudate nucleus; details: in vivo
# [11] = Ratio of drug uptake in caudate to cerebellum in awake rhesus monkey after 25 mins postinjection; type: ADME, organism-based, Macaca mulatta; details: in vivo
# [12] = Drug uptake in awake rhesus monkey brain frontal lobe after 75 mins postinjection; type: ADME, organism-based, Macaca mulatta; details: in vivo, 1.25 h
# Pons [13] = assay: Drug uptake in anesthetized cynomolgus monkey brain pons after 145 mins postinjection; type: ADME, organism-based, Macaca fascicularis; details: in vivo
# [14] = Drug uptake in anesthetized cynomolgus monkey brain frontal lobe after 187.5 mins postinjection; type: ADME, organism-based, Macaca fascicularis; details: in vivo, 3.125 h
# Midbrain [15] = assay: Drug uptake in anesthetized cynomolgus monkey brain midbrain after 145 mins postinjection; type: ADME, organism-based, Macaca fascicularis; details: in vivo
# Putamen [16] = assay: Drug uptake in anesthetized cynomolgus monkey brain putamen after 1.5 mins postinjection; type: ADME, organism-based, Macaca fascicularis; details: in vivo, 0.025 h
# [17] = Drug uptake in awake rhesus monkey brain medulla after 65 mins postinjection; type: ADME, organism-based, Macaca mulatta; details: in vivo
# [18] = Drug uptake in awake rhesus monkey brain thalamus after 10.5 mins postinjection; type: ADME, organism-based, Macaca mulatta; details: in vivo, 0.175 h
# [19] = Drug uptake in awake rhesus monkey brain pons after 75 mins postinjection; type: ADME, organism-based, Macaca mulatta; details: in vivo, 1.25 h
# Pons [20] = assay: Drug uptake in anesthetized cynomolgus monkey brain pons after 6.5 mins postinjection; type: ADME, organism-based, Macaca fascicularis; details: in vivo
# [21] = Ratio of drug uptake in pons to cerebellum in anesthetized cynomolgus monkey after 0.5 mins postinjection; type: ADME, organism-based, Macaca fascicularis; details: in vivo
# Pons [22] = assay: Drug uptake in anesthetized cynomolgus monkey brain pons after 15.5 mins postinjection; type: ADME, organism-based, Macaca fascicularis; details: in vivo
# [23] = Drug uptake in awake rhesus monkey brain midbrain after 25 mins postinjection; type: ADME, organism-based, Macaca mulatta; details: in vivo
# [24] = Drug uptake in anesthetized cynomolgus monkey brain frontal lobe after 235 mins postinjection; type: ADME, organism-based, Macaca fascicularis; details: in vivo
# [25] = Drug uptake in awake rhesus monkey brain medulla after 35 mins postinjection; type: ADME, organism-based, Macaca mulatta; details: in vivo
# Medulla [26] = assay: Drug uptake in anesthetized cynomolgus monkey brain medulla after 182.5 mins postinjection; type: ADME, organism-based, Macaca fascicularis; details: in vivo
# [27] = Drug uptake in awake rhesus monkey brain medulla after 115 mins postinjection; type: ADME, organism-based, Macaca mulatta; details: in vivo
# Medulla [28] = assay: Drug uptake in anesthetized cynomolgus monkey brain medulla after 0.5 mins postinjection; type: ADME, organism-based, Macaca fascicularis; details: in vivo
# Midbrain [29] = assay: Drug uptake in anesthetized cynomolgus monkey brain midbrain after 192.5 mins postinjection; type: ADME, organism-based, Macaca fascicularis; details: in vivo
# Caudate [30] = assay: Drug uptake in anesthetized cynomolgus monkey brain caudate after 202.5 mins postinjection; type: ADME, organism-based, Macaca fascicularis, Caudate nucleus; details: in vivo, 3.375 h
# [31] = Drug uptake in anesthetized cynomolgus monkey brain occipital lobe after 197.5 mins postinjection; type: ADME, organism-based, Macaca fascicularis; details: in vivo
# [32] = Ratio of drug uptake in midbrain to cerebellum in anesthetized cynomolgus monkey after 135 mins postinjection; type: ADME, organism-based, Macaca fascicularis; details: in vivo, 2.25 h
# [33] = Ratio of drug uptake in occipital lobe to cerebellum in anesthetized cynomolgus monkey after 115 mins postinjection; type: ADME, organism-based, Macaca fascicularis; details: in vivo
# Midbrain [34] = assay: Drug uptake in anesthetized cynomolgus monkey brain midbrain after 175 mins postinjection; type: ADME, organism-based, Macaca fascicularis; details: in vivo
# Medulla [35] = assay: Drug uptake in anesthetized cynomolgus monkey brain medulla after 35 mins postinjection; type: ADME, organism-based, Macaca fascicularis; details: in vivo
# [36] = Drug uptake in anesthetized cynomolgus monkey brain occipital lobe after 35 mins postinjection; type: ADME, organism-based, Macaca fascicularis; details: in vivo
# [37] = Ratio of drug uptake in pons to cerebellum in anesthetized cynomolgus monkey after 145 mins postinjection; type: ADME, organism-based, Macaca fascicularis; details: in vivo
# Midbrain [38] = assay: Drug uptake in anesthetized cynomolgus monkey brain midbrain after 115 mins postinjection; type: ADME, organism-based, Macaca fascicularis; design: unit not given here; details: in vivo
# Pons [39] = assay: Drug uptake in anesthetized cynomolgus monkey brain pons after 165 mins postinjection; type: ADME, organism-based, Macaca fascicularis; details: in vivo, 2.75 h
# Caudate [40] = assay: Drug uptake in anesthetized cynomolgus monkey brain caudate after 9.5 mins postinjection; type: ADME, organism-based, Macaca fascicularis, Caudate nucleus; details: in vivo
# Medulla [41] = assay: Drug uptake in anesthetized cynomolgus monkey brain medulla after 15.5 mins postinjection; type: ADME, organism-based, Macaca fascicularis; details: in vivo
# Thalamus [42] = assay: Drug uptake in anesthetized cynomolgus monkey brain thalamus after 145 mins postinjection; type: ADME, organism-based, Macaca fascicularis; design: unit not given here; details: in vivo
# Thalamus [43] = assay: Drug uptake in anesthetized cynomolgus monkey brain thalamus after 4.5 mins postinjection; type: ADME, organism-based, Macaca fascicularis; design: unit not given here; details: in vivo, 0.075 h
# [44] = Ratio of drug uptake in midbrain to cerebellum in anesthetized cynomolgus monkey after 9.5 mins postinjection; type: ADME, organism-based, Macaca fascicularis; details: in vivo
# Caudate [45] = assay: Drug uptake in anesthetized cynomolgus monkey brain caudate after 0.5 mins postinjection; type: ADME, organism-based, Macaca fascicularis, Caudate nucleus; details: in vivo
# [46] = Ratio of drug uptake in putamen to cerebellum in anesthetized cynomolgus monkey after 235 mins postinjection; type: ADME, organism-based, Macaca fascicularis; details: in vivo
# Thalamus [47] = assay: Drug uptake in anesthetized cynomolgus monkey brain thalamus after 165 mins postinjection; type: ADME, organism-based, Macaca fascicularis; design: unit not given here; details: in vivo, 2.75 h
# Caudate [48] = assay: Drug uptake in anesthetized cynomolgus monkey brain caudate after 215 mins postinjection; type: ADME, organism-based, Macaca fascicularis, Caudate nucleus; details: in vivo
# Medulla [49] = assay: Drug uptake in anesthetized cynomolgus monkey brain medulla after 187.5 mins postinjection; type: ADME, organism-based, Macaca fascicularis; details: in vivo, 3.125 h
# Pons [50] = assay: Drug uptake in anesthetized cynomolgus monkey brain pons after 192.5 mins postinjection; type: ADME, organism-based, Macaca fascicularis; details: in vivo
# [51] = Drug uptake in awake rhesus monkey brain medulla after 10.5 mins postinjection; type: ADME, organism-based, Macaca mulatta; details: in vivo, 0.175 h
# Putamen [52] = assay: Drug uptake in anesthetized cynomolgus monkey brain putamen after 135 mins postinjection; type: ADME, organism-based, Macaca fascicularis; details: in vivo, 2.25 h
# [53] = Ratio of drug uptake in pons to cerebellum in anesthetized cynomolgus monkey after 85 mins postinjection; type: ADME, organism-based, Macaca fascicularis; details: in vivo
# [54] = Ratio of drug uptake in occipital lobe to cerebellum in anesthetized cynomolgus monkey after 105 mins postinjection; type: ADME, organism-based, Macaca fascicularis; details: in vivo, 1.75 h
# [55] = Ratio of drug uptake in pons to cerebellum in anesthetized cynomolgus monkey after 95 mins postinjection; type: ADME, organism-based, Macaca fascicularis; details: in vivo
# Thalamus [56] = assay: Drug uptake in anesthetized cynomolgus monkey brain thalamus after 0.5 mins postinjection; type: ADME, organism-based, Macaca fascicularis; details: in vivo
structure (smiles),measurement,setting,value
O=C(OCC[18F])C1C2CCC(CC1c1cccc(/C=C\I)c1)N2 (stereo unspecified),Drug uptake,Medulla [1],2.54
same,Drug uptake,Midbrain [2],3.53
same,Drug uptake,Thalamus [3],2.49
same,Drug uptake,Pons [4],3.01
same,Drug uptake,Midbrain [5],3.37
same,Drug uptake,[6],0
same,Ratio,[7],0.9
same,Drug uptake,Putamen [8],2.58
same,Ratio,[9],0.9
same,Drug uptake,Caudate [10],3.17
same,Ratio,[11],1.2
same,Drug uptake,[12],0.11
same,Drug uptake,Pons [13],2.57
same,Drug uptake,[14],1.65
same,Drug uptake,Midbrain [15],3.85
same,Drug uptake,Putamen [16],0.1
same,Drug uptake,[17],0.12
same,Drug uptake,[18],0.12
same,Drug uptake,[19],0.14
same,Drug uptake,Pons [20],2.02
same,Ratio,[21],1.7
same,Drug uptake,Pons [22],2.82
same,Drug uptake,[23],0.13
same,Drug uptake,[24],1.39
same,Drug uptake,[25],0.12
same,Drug uptake,Medulla [26],2.68
same,Drug uptake,[27],0.11
same,Drug uptake,Medulla [28],0
same,Drug uptake,Midbrain [29],3.24
same,Drug uptake,Caudate [30],2.21
same,Drug uptake,[31],1.39
same,Ratio,[32],2
same,Ratio,[33],0.9
same,Drug uptake,Midbrain [34],3.46
same,Drug uptake,Medulla [35],4.05
same,Drug uptake,[36],3.15
same,Ratio,[37],1.4
same,Drug uptake,Midbrain [38],4.18
same,Drug uptake,Pons [39],2.46
same,Drug uptake,Caudate [40],2.5
same,Drug uptake,Medulla [41],3.53
same,Drug uptake,Thalamus [42],3.16
same,Drug uptake,Thalamus [43],1.57
same,Ratio,[44],1
same,Drug uptake,Caudate [45],0
same,Ratio,[46],1.8
same,Drug uptake,Thalamus [47],2.91
same,Drug uptake,Caudate [48],2.09
same,Drug uptake,Medulla [49],2.64
same,Drug uptake,Pons [50],2.14
same,Drug uptake,[51],0.09
same,Drug uptake,Putamen [52],3.44
same,Ratio,[53],1.1
same,Ratio,[54],1
same,Ratio,[55],1.2
same,Drug uptake,Thalamus [56],0

# — ChEMBL document CHEMBL1151757, “Synthesis, radiosynthesis, and biological evaluation of fluorine-18-labeled 2beta-carbo(fluoroalkoxy)-3beta-(3'-((Z)-2-haloethenyl)phenyl)nortropanes: candidate radioligands for in vivo imaging of the serotonin transporter with positron emission tomography” (J Med Chem, 2008)
